Source: ChEMBL document CHEMBL5046266, “Synthesis and Evaluation of Structurally Diverse C-2-Substituted Thienopyrimidine-Based Inhibitors of the Human Geranylgeranyl Pyrophosphate Synthase” (J Med Chem, 2022)
pEC50, pIC50: −log10 of the molar value.

Key:
in vitro = conditions: human, bone marrow mononuclear cells
RPMI-8226 = assay: cells; conditions: Homo sapiens, RPMI-8226, 72 h
[1] = target: T1, Farnesyl pyrophosphate synthase (Homo sapiens) (UniProt P14324); assay: Inhibition of human FPPS expressed in Escherichia coli BL21 (DE3) at 1 uM preincubated for 10 mins in presence compound relative to control
T1 sequence (whole entry): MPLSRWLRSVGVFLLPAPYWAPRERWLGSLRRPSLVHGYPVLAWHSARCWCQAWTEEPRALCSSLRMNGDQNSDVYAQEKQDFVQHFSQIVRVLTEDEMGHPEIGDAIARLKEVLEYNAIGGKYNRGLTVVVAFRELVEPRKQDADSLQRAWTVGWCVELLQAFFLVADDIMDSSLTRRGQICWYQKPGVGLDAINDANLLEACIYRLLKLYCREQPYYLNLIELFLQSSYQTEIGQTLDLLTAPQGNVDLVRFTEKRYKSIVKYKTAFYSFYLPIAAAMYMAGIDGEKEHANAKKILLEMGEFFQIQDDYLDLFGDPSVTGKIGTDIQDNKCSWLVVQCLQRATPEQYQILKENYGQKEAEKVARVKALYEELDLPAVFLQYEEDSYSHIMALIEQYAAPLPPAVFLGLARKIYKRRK

[2] = target: T2, Geranylgeranyl pyrophosphate synthase (Homo sapiens, UniProt O95749)
T2 sequence (O95749 whole entry): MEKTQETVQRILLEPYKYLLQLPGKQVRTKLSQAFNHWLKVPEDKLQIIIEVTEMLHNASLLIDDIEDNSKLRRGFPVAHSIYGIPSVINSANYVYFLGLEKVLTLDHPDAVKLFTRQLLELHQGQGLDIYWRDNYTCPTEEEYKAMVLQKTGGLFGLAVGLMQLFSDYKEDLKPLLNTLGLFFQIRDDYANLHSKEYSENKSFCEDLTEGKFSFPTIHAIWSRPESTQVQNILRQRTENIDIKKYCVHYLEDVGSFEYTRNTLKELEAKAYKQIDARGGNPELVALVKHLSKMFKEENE

[3] = target: T3, Farnesyl pyrophosphate synthase (Homo sapiens, UniProt P14324)
T3 sequence (P14324 whole entry): T1 sequence (whole entry)

In the case of `CC(C)C[C@H](NC(=O)[C@H](Cc1ccccc1)NC(=O)c1cnccn1)B(O)O` [BORTEZOMIB], the viability at 72 h, 0.05 µM (in vitro) was 40.1%.
For `O=C(Nc1cccc(-c2nc(NC(P(=O)(O)O)P(=O)(O)O)c3ccsc3n2)c1)c1ccccc1`, the pEC50 (RPMI-8226) was < 6.30, the inhibition [1] was 40% and the pIC50 [2] was 7.72.
With `COc1ccc([C@@H](OC(C)C)C(=O)Nc2cccc(-c3nc(NC(P(=O)(O)O)P(=O)(O)O)c4ccsc4n3)c2)cc1F` the pEC50 (RPMI-8226) was < 5.30, the pIC50 [3] was 6.14 and the pIC50 [2] was 7.70.
`O=C(Cc1ccccc1)Nc1cccc(-c2nc(NC(P(=O)(O)O)P(=O)(O)O)c3ccsc3n2)c1` showed a pEC50 (RPMI-8226) of 6.13, an inhibition [1] of 55% and a pIC50 [2] of 7.64.
`CO[C@@H](C(=O)Nc1cccc(-c2nc(NC(P(=O)(O)O)P(=O)(O)O)c3ccsc3n2)c1)c1ccccc1` showed a pEC50 (RPMI-8226) of 6.04, an inhibition [1] of 48% and a pIC50 [2] of 7.41.
`O=C(Nc1ccc(F)cc1)Nc1cccc(-c2nc(NC(P(=O)(O)O)P(=O)(O)O)c3ccsc3n2)c1` showed a pEC50 (RPMI-8226) of 5.39, an inhibition [1] of 90% and a pIC50 [2] of 7.39.
In the case of `O=C(Nc1cccc(-c2nc(NC(P(=O)(O)O)P(=O)(O)O)c3ccsc3n2)c1)c1ccc(C(F)(F)F)cn1`, the pEC50 (RPMI-8226) was 4.67, the inhibition [1] was 60% and the pIC50 [2] was 7.28.
Compound `COc1ccc(NC(=O)Nc2cccc(-c3nc(NC(P(=O)(O)O)P(=O)(O)O)c4ccsc4n3)c2)cc1F` has a pEC50 (RPMI-8226) of 5.89 and a pIC50 [2] of 7.47.
In the case of `O=C(Nc1cccc(-c2nc(NC(P(=O)(O)O)P(=O)(O)O)c3ccsc3n2)c1)c1ccc(C(F)(F)F)cc1`, the pEC50 (RPMI-8226) was 6.15, the inhibition [1] was 40% and the pIC50 [2] was 7.74.
In the case of `Cc1ccc(S(=O)(=O)Nc2cccc(-c3nc(NC(P(=O)(O)O)P(=O)(O)O)c4ccsc4n3)c2)cc1F`, the pEC50 (RPMI-8226) was 5.11, the inhibition [1] was 30% and the pIC50 [2] was 7.64.
For `COc1ccc(S(=O)(=O)Nc2cccc(-c3nc(NC(P(=O)(O)O)P(=O)(O)O)c4ccsc4n3)c2)cc1F`, the pEC50 (RPMI-8226) was 5.33, the inhibition [1] was 40% and the pIC50 [2] was 7.62.
`O=C(Nc1ccccc1)c1cccc(-c2nc(NC(P(=O)(O)O)P(=O)(O)O)c3ccsc3n2)c1` showed a pIC50 [2] of 7.39.
With `Cc1ccc(NC(=O)c2cccc(-c3nc(NC(P(=O)(O)O)P(=O)(O)O)c4ccsc4n3)c2)cc1Br` the pEC50 (RPMI-8226) was 6.79, the inhibition [1] was 12% and the pIC50 [2] was 7.82.
`COc1ccc(NS(=O)(=O)c2cccc(-c3nc(NC(P(=O)(O)O)P(=O)(O)O)c4ccsc4n3)c2)cc1F` gave a pEC50 (RPMI-8226) of 5.30, an inhibition [1] of 25% and a pIC50 [2] of 7.64.
In the case of `CC(C)O[C@@H](C(=O)Nc1cccc(-c2nc(NC(P(=O)(O)O)P(=O)(O)O)c3ccsc3n2)c1)c1ccccc1`, the pEC50 (RPMI-8226) was 6.04 and the pIC50 [2] was 7.64.
`COc1ccc(C(=O)Nc2cccc(-c3nc(NC(P(=O)(O)O)P(=O)(O)O)c4ccsc4n3)c2)cc1F` gave a pEC50 (RPMI-8226) of 6.34, an inhibition [1] of 60% and a pIC50 [2] of 7.54.
Work on `Cc1ccc(C(=O)Nc2cccc(-c3nc(NC(P(=O)(O)O)P(=O)(O)O)c4ccsc4n3)c2)cc1F` yielded a pEC50 (RPMI-8226) of 6.54, an inhibition [1] of 35% and a pIC50 [2] of 7.68.
With `O=C(Cc1cccnc1)Nc1cccc(-c2nc(NC(P(=O)(O)O)P(=O)(O)O)c3ccsc3n2)c1` the pEC50 (RPMI-8226) was 5.92, the inhibition [1] was 60% and the pIC50 [2] was 7.15.
In the case of `O=P(O)(O)C(Nc1nc(-c2ccccc2)nc2sccc12)P(=O)(O)O`, the pEC50 (RPMI-8226) was < 5.00 and the pIC50 [2] was 7.43.
In the case of `COc1ccc(C(=O)Nc2cccc(-c3nc(NC(P(=O)(O)O)P(=O)(O)O)c4ccsc4n3)c2)cc1Br`, the pEC50 (RPMI-8226) was < 6.30, the inhibition [1] was 40% and the pIC50 [2] was 7.44.
Work on `Cc1ccc(NC(=O)c2cccc(-c3nc(NC(P(=O)(O)O)P(=O)(O)O)c4ccsc4n3)c2)cc1F` yielded a pEC50 (RPMI-8226) of 6.89, an inhibition [1] of 28% and a pIC50 [2] of 7.51.
For `CC(C)C[C@H](NC(=O)[C@H](CCc1ccccc1)NC(=O)CN1CCOCC1)C(=O)N[C@@H](Cc1ccccc1)C(=O)N[C@@H](CC(C)C)C(=O)[C@@]1(C)CO1` [CARFILZOMIB], the viability at 72 h, 0.05 µM (in vitro) was 43.6%.
Compound `O=C(Nc1cccc(-c2nc(NC(P(=O)(O)O)P(=O)(O)O)c3ccsc3n2)c1)c1ccc(F)cc1` has an inhibition [1] of 30% and a pIC50 [2] of 7.60.
For `COc1ccc([C@H](OC(C)C)C(=O)Nc2cccc(-c3nc(NC(P(=O)(O)O)P(=O)(O)O)c4ccsc4n3)c2)cc1F`, the pEC50 (RPMI-8226) was 6.06, the pIC50 [3] was 6.34 and the pIC50 [2] was 7.77.
In the case of `CO[C@H](C(=O)Nc1cccc(-c2nc(NC(P(=O)(O)O)P(=O)(O)O)c3ccsc3n2)c1)c1ccccc1`, the pEC50 (RPMI-8226) was 6.41, the inhibition [1] was 55% and the pIC50 [2] was 7.42.
`CC(C)O[C@H](C(=O)Nc1cccc(-c2nc(NC(P(=O)(O)O)P(=O)(O)O)c3ccsc3n2)c1)c1ccccc1` gave a pEC50 (RPMI-8226) of 6.87, an inhibition [1] of 35% and a pIC50 [2] of 7.68.
